Reference: ChEMBL document CHEMBL1201862, “PubChem BioAssay data set” (2004)
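Test compounds were applied to cells in 96-well plates for 48 hours at 5 doses. GI50: concentration for 50% inhibition of growth.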 Calls of active or inactive are those of the source. Cut-off read from the data, not from the text of the source: active = GI50 up to about 1.1 µM and inactive = higher.

What was measured:
Experiment in all cases: growth of human tumour cells (NCI), 48 h
[1] = system: UACC-62
[2] = system: DU-145
[3] = system: CAKI-1
[4] = system: SN12C
[5] = system: UACC-257
[6] = system: MDA-MB-435
[7] = system: EKVX
[8] = system: SK-OV-3
[9] = system: OVCAR-4
[10] = system: SK-MEL-5
[11] = system: OVCAR-3
[12] = system: NCI/ADR-RES
[13] = system: CCRF-CEM
[14] = system: HCT-15
[15] = system: SK-MEL-2
[16] = system: 786-0
[17] = system: HOP-62
[18] = system: SF-268
[19] = system: HCC 2998

| Compound | GI50 [1] | GI50 [2] | GI50 [3] | GI50 [4] | GI50 [5] | GI50 [6] | GI50 [7] | GI50 [8] | GI50 [9] | GI50 [10] | GI50 [11] | GI50 [12] | GI50 [13] | GI50 [14] | GI50 [15] | GI50 [16] | GI50 [17] | GI50 [18] | GI50 [19] |
| --- | --- | --- | --- | --- | --- | --- | --- | --- | --- | --- | --- | --- | --- | --- | --- | --- | --- | --- | --- |
| CCOC(=O)CCC(NC(=O)c1ccc(Nc2cnc3ccc(C(F)(F)F)cc3n2)cc1)C(=O)OCC (centres undefined) | 20.6 µM (inactive) | > 26 µM (inactive) | 12 µM (inactive) | > 83.8 µM (inactive) | > 74.3 µM (inactive) | > 80.9 µM (inactive) | 30.1 µM (inactive) | 16.5 µM (inactive) | 8.2 µM (inactive) | > 64.7 µM (inactive) | > 100 µM (inactive) | 11 µM (inactive) | > 100 µM (inactive) | > 100 µM | > 96.4 µM (inactive) | 10.5 µM (inactive) | 14.1 µM (inactive) | 15 µM (inactive) | 81.1 µM (inactive) |
| c1ccc(C(OCCN2CC3CCC(C2)N3)c2ccccc2)cc1 | 27.7 µM (inactive) | > 100 µM (inactive) | > 100 µM (inactive) | > 100 µM (inactive) | 22.7 µM (inactive) | 35.9 µM (inactive) | > 100 µM (inactive) | > 100 µM (inactive) | > 100 µM (inactive) | 18.5 µM (inactive) | 45 µM (inactive) | > 100 µM (inactive) | > 100 µM (inactive) | 47.6 µM | 76.7 µM (inactive) | 41 µM (inactive) | > 100 µM (inactive) | > 100 µM (inactive) | 17.8 µM (inactive) |
| O=C(Nc1ccccc1)N1CCNC1=S | > 100 µM (inactive) | > 100 µM (inactive) | > 100 µM (inactive) | > 100 µM (inactive) |  | > 100 µM (inactive) | 53 µM (inactive) | > 100 µM (inactive) | 71.6 µM (inactive) | > 100 µM (inactive) | > 100 µM (inactive) | > 100 µM (inactive) | > 100 µM (inactive) | > 100 µM | > 100 µM (inactive) | > 100 µM (inactive) | > 100 µM (inactive) | > 100 µM (inactive) | 15.5 µM (inactive) |
| O=C(c1ccc(Cl)c(Cl)c1)N(C(=S)OC12CC3CC(CC(C3)C1)C2)c1ccccc1 | 25.1 µM (inactive) | 83.2 µM (inactive) | 29.9 µM (inactive) | 26.9 µM (inactive) | 41.2 µM (inactive) | 30.2 µM (inactive) | 20.8 µM (inactive) | 36.6 µM (inactive) | 38.2 µM (inactive) | 19.5 µM (inactive) | 39.4 µM (inactive) | 30.1 µM (inactive) | 2.8 µM (inactive) | 33.3 µM | 20 µM (inactive) | 30.3 µM (inactive) | 44.6 µM (inactive) | 40.4 µM (inactive) | 43.3 µM (inactive) |
| CC1=C(C#N)C(C#N)(C#N)C(NN(C)C)C1 (centres undefined) | 15.9 µM (inactive) | 15.7 µM (inactive) | 1.71 µM (inactive) | 14.1 µM (inactive) | 10.6 µM (inactive) | 23.7 µM (inactive) | 14 µM (inactive) | > 100 µM (inactive) | 30.7 µM (inactive) | 4.49 µM (inactive) |  | 23.8 µM (inactive) | 3.59 µM (inactive) | 7.38 µM | 20.2 µM (inactive) | 8.99 µM (inactive) | 16.7 µM (inactive) | 21.7 µM (inactive) | 17.2 µM (inactive) |
| C=C1C(O)C2(O)OCC34C(CC5C(C)=CC(=O)C(O)C5(C)C23)OC(=O)C(OC(=O)C/C=C(\C)CCCCC)C14 (centres undefined) | 0.0147 µM (active) | < 0.001 µM (active) | 0.0427 µM (active) | 0.0199 µM (active) | 0.0125 µM (active) | < 0.001 µM (active) | 0.0198 µM (active) | 0.0133 µM (active) | 0.0125 µM (active) |  |  | 0.624 µM (active) | 0.0125 µM (active) | 0.0316 µM | 0.0251 µM (active) | 0.00103 µM (active) | 0.0148 µM (active) | 0.0152 µM (active) | 0.0136 µM (active) |
| Cc1ccnc(NS(=O)(=O)c2ccc(NC(=O)c3ccc4nc5ccccc5c(Nc5ccc(S(=O)(=O)Nc6nccc(C)n6)cc5)c4c3)cc2)n1 | 38.3 µM (inactive) | > 100 µM (inactive) | > 100 µM (inactive) | 60.3 µM (inactive) | > 100 µM (inactive) | 66.1 µM (inactive) | > 100 µM (inactive) | > 100 µM (inactive) | 52.4 µM (inactive) | 27.7 µM (inactive) | 33.6 µM (inactive) | > 100 µM (inactive) | 42.3 µM (inactive) | > 100 µM | 16 µM (inactive) | > 100 µM (inactive) | > 100 µM (inactive) | 28.3 µM (inactive) | 37.2 µM (inactive) |
| O=C(CC(=O)N1N=C(N(c2ccccc2)c2ccccc2)CC1c1ccccc1)Nc1ccc(Cl)cc1 (centres undefined) | > 100 µM (inactive) | > 100 µM (inactive) | > 100 µM (inactive) | > 100 µM (inactive) | > 100 µM (inactive) | > 100 µM (inactive) | > 100 µM (inactive) | > 100 µM (inactive) | > 100 µM (inactive) | > 100 µM (inactive) | > 100 µM (inactive) | > 100 µM (inactive) | > 100 µM (inactive) | > 100 µM | > 100 µM (inactive) | > 100 µM (inactive) | > 100 µM (inactive) | > 100 µM (inactive) | > 100 µM (inactive) |
| COc1cc(/C=N/c2ccc(S(N)(=O)=O)cc2)cc(OC)c1 | > 50 µM (inactive) | > 50 µM (inactive) | > 50 µM (inactive) | > 50 µM (inactive) | > 50 µM (inactive) | 14 µM (inactive) | > 50 µM (inactive) | > 50 µM (inactive) | > 50 µM (inactive) | > 50 µM (inactive) | > 50 µM (inactive) | > 50 µM (inactive) | 34.3 µM (inactive) | 29.6 µM | > 50 µM (inactive) | > 50 µM (inactive) | > 50 µM (inactive) | > 50 µM (inactive) | > 50 µM (inactive) |
| O=C1/C(=C\c2c(-c3ccccc3)[nH]n(-c3ccccc3)c2=O)C(c2ccccc2)=NN1c1ccccc1 | > 100 µM (inactive) | > 100 µM (inactive) | > 100 µM (inactive) | > 100 µM (inactive) | > 100 µM (inactive) | > 100 µM (inactive) | > 100 µM (inactive) | > 100 µM (inactive) | > 100 µM (inactive) |  | > 100 µM (inactive) | > 100 µM (inactive) | 79.4 µM (inactive) | > 100 µM | > 100 µM (inactive) | > 100 µM (inactive) | > 100 µM (inactive) | > 100 µM (inactive) | > 100 µM (inactive) |
| CCCCCCCCCCCCCC[C@@H](O)[C@H]1CC[C@H]([C@H]2CC[C@H]([C@H](O)CCCCCC[C@@H](O)CC3=C[C@H](C)OC3=O)O2)O1 | 1.54 µM (inactive) | 4.24 µM (inactive) | > 25 µM (inactive) | 2.2 µM (inactive) | 3.65 µM (inactive) | > 25 µM (inactive) | > 7.52 µM (inactive) | > 25 µM (inactive) | > 25 µM (inactive) | 0.117 µM (active) | > 25 µM (inactive) | > 20.1 µM (inactive) | > 25 µM (inactive) | > 25 µM | > 25 µM (inactive) | > 25 µM (inactive) | > 25 µM (inactive) | > 25 µM (inactive) | > 25 µM (inactive) |
